# Measured values published in PMC7217877, “N-AS-triggered SPMs are direct regulators of microglia in a model of Alzheimer’s disease” (Nature Communications, 2020).
# Where “and” joins values, the source holds several entries; their conditions need not be identical. Equal values may be shown once.
# System: microglia
# Assay: SphK activity in primary cells
# Assay type: cell-based, C57BL/6 mice
# Conditions: Ab 10mM, replicates
# Protocol: We confirmed S1P formation through SphK1 enzymatic activity measurements as previously described[11] using a UPLC (Ultra performance liquid chromatography) system (Waters). […] After pre-incubation, 1 mM ATP (Amresco, 0220) was added the mixture, and it was incubated at 37 °C for 1 h. The […] reactions were stopped by adding 53 μl of ethanol, and centrifuged at 15,493×g for 5 min. Thirty microliter of the supernatant was then transferred to a sampling glass vial and 5 μl was applied onto a UPLC system for analysis. S1P formation was followed as phosphorylation of (7-nitro-2-1,3-benzoxadiazol-4-yl)-d-erythro (NBD)-sphingosine (Avanti Polar Lipids) to NBD-S1P. Quantification was achieved by comparison with NBD-S1P (Avanti Polar Lipids) standards.
# To confirm the generation and roles of N-AS in neurons, cells from E18 C57BL/6 mice were prepared as previously described. Cortices were dissected and then dissociated followed by incubation in papain (Worthington) at 37 °C for 15 min. […] Aβ 1–42 (10 μM, 24 h, Invitrogen, 03112) was exposed to neurons and the cells were analyzed for the generation and roles of N-AS. […] The human microglia treated with Aβ 1–42 and/or zileuton was incubated with N-AS (2.5 μM, 2 h, Sigma-Aldrich, 01912), and were analyzed for the generation and roles of N-AS.
substance,measurement,value
"Ab: Aβ 1–42 (Invitrogen, 03112) used to induce an AD environment in cells",SphK activity (Fig 3d),3.655 and 3.493 and 3.944 and 3.366 and 2.386 and 3.719
